Assay results as given in ChEMBL document CHEMBL3885861, “Open TG-GATES”.

Organism: Rattus norvegicus
Assay: Open TG-GATES - Regimen: Daily Repeat
Format: toxicity, organism-based, Sprague-Dawley
Design: regimen Daily Repeat, gender Male, age 6 weeks
Details: in vivo, po, 300 mg/kg, route gavage, dose level Low; for APTT / Bas / Eos / Fbg / Hb / Ht / Lym / MCH / MCHC / MCV / Mono / Neu / PT / Plat / RBC / Ret / WBC: tissue Blood
[1] = 72 h, tissue Kidney, time 3 day
[2] = 72 h, tissue Plasma, time 3 day

Q: How did the TERMINAL_BW (72 h, time 3 day) turn out when `COc1ccc(O)c(C(C)(C)C)c1.COc1ccc(O)cc1C(C)(C)C` [BUTYLATED HYDROXYANISOLE] was run?
A: 219.2 g

Q: What about the APTT (72 h, time 3 day) of the same compound?
A: 15.4 s

Q: What about the Bas (72 h, time 3 day) of the same compound?
A: 0.3%

Q: What about the Eos (72 h, time 3 day) of the same compound?
A: 1.2%

Q: What about the Fbg (72 h, time 3 day) of the same compound?
A: 275.8 mg/dL

Q: What about the Hb (72 h, time 3 day) of the same compound?
A: 12.7 g/dL

Q: And the Ht (72 h, time 3 day)?
A: 37.2%

Q: What about the Lym (72 h, time 3 day) of the same compound?
A: 78.2%

Q: And the MCH (72 h, time 3 day)?
A: 20.4 pg

Q: What about the MCHC (72 h, time 3 day) of the same compound?
A: 34.2%

Q: What about the MCV (72 h, time 3 day) of the same compound?
A: 59.9 fL

Q: And the Mono (72 h, time 3 day)?
A: 2.2%

Q: What about the Neu (72 h, time 3 day) of the same compound?
A: 17.1%

Q: And the PT (72 h, time 3 day)?
A: 11.5 s

Q: What about the Plat (72 h, time 3 day) of the same compound?
A: 148 x10_4/uL

Q: What about the RBC (72 h, time 3 day) of the same compound?
A: 623.6 x10_4/ul

Q: And the Ret (72 h, time 3 day)?
A: 4.9%

Q: What about the WBC (72 h, time 3 day) of the same compound?
A: 112 x10_2/uL

Q: And the KIDNEY_L [1]?
A: 0.9 g

Q: And the KIDNEY_R [1]?
A: 0.9 g

Q: What about the KIDNEY_TOTAL [1] of the same compound?
A: 1.7 g

Q: And the LIVER (72 h, tissue Liver, time 3 day)?
A: 12.2 g

Q: What about the A/G [2] of the same compound?
A: 0.8

Q: What about the ALP [2] of the same compound?
A: 1525.6 IU/L

Q: And the ALT [2]?
A: 36.4 IU/L

Q: What about the AST [2] of the same compound?
A: 64.8 IU/L

Q: And the BUN [2]?
A: 15.8 mg/dL

Q: What about the CRE [2] of the same compound?
A: 0.2 mg/dL

Q: What about the Ca [2] of the same compound?
A: 11.2 mg/dL

Q: What about the Cl [2] of the same compound?
A: 106.4 meq/L

Q: And the DBIL [2]?
A: 0.02 mg/dL

Q: What about the GLC [2] of the same compound?
A: 171.4 mg/dL

Q: What about the IP [2] of the same compound?
A: 6.3 mg/dL

Q: What about the K [2] of the same compound?
A: 4.3 meq/L

Q: What about the LDH [2] of the same compound?
A: 60.6 IU/L

Q: What about the Na [2] of the same compound?
A: 142.2 meq/L

Q: What about the PL [2] of the same compound?
A: 173.4 mg/dL

Q: What about the RALB [2] of the same compound?
A: 2.7 g/dL

Q: What about the TBIL [2] of the same compound?
A: 0.064 mg/dL

Q: And the TC [2]?
A: 95.6 mg/dL

Q: And the TG [2]?
A: 89.8 mg/dL

Q: And the TP [2]?
A: 6 g/dL

Q: What about the gamma-GTP [2] of the same compound?
A: 1.2 IU/L

Q: And the TERMINAL_BW ([…], time 7 day)?
A: 261 g

Q: What about the TERMINAL_BW ([…], time 14 day) of the same compound?
A: 311.5 g

Q: And the TERMINAL_BW ([…], time 28 day)?
A: 401.5 g

Q: What about the APTT ([…], time 7 day) of the same compound?
A: 15.7 s

Q: And the Bas ([…], time 7 day)?
A: 0.2%

Q: What about the Eos ([…], time 7 day) of the same compound?
A: 0.6%

Q: What about the Fbg ([…], time 7 day) of the same compound?
A: 300.8 mg/dL

Q: And the Hb ([…], time 7 day)?
A: 13 g/dL

Q: What about the Ht ([…], time 7 day) of the same compound?
A: 38.5%

Q: What about the Lym ([…], time 7 day) of the same compound?
A: 74.3%

Q: And the MCH ([…], time 7 day)?
A: 20.4 pg

Q: What about the MCHC ([…], time 7 day) of the same compound?
A: 33.7%

Q: What about the MCV ([…], time 7 day) of the same compound?
A: 60.4 fL

Q: And the Mono ([…], time 7 day)?
A: 2.4%

Q: What about the Neu ([…], time 7 day) of the same compound?
A: 21.7%

Q: And the PT ([…], time 7 day)?
A: 11.5 s

Q: What about the Plat ([…], time 7 day) of the same compound?
A: 154.1 x10_4/uL

Q: And the RBC ([…], time 7 day)?
A: 638 x10_4/ul

Q: And the Ret ([…], time 7 day)?
A: 6.1%

Q: What about the WBC ([…], time 7 day) of the same compound?
A: 97.1 x10_2/uL

Q: And the APTT ([…], time 14 day)?
A: 15.2 s

Q: And the Bas ([…], time 14 day)?
A: 0.2%

Q: And the Eos ([…], time 14 day)?
A: 0.7%

Q: And the Fbg ([…], time 14 day)?
A: 319.4 mg/dL

Q: What about the Hb ([…], time 14 day) of the same compound?
A: 13.7 g/dL

Q: What about the Ht ([…], time 14 day) of the same compound?
A: 39.7%

Q: And the Lym ([…], time 14 day)?
A: 77.1%

Q: And the MCH ([…], time 14 day)?
A: 19.7 pg

Q: And the MCHC ([…], time 14 day)?
A: 34.6%

Q: And the MCV ([…], time 14 day)?
A: 57 fL

Q: What about the Mono ([…], time 14 day) of the same compound?
A: 2.2%

Q: What about the Neu ([…], time 14 day) of the same compound?
A: 19.3%

Q: And the PT ([…], time 14 day)?
A: 11.5 s

Q: And the Plat ([…], time 14 day)?
A: 140.8 x10_4/uL

Q: And the RBC ([…], time 14 day)?
A: 696.8 x10_4/ul

Q: And the Ret ([…], time 14 day)?
A: 3.8%

Q: What about the WBC ([…], time 14 day) of the same compound?
A: 87.1 x10_2/uL

Q: And the APTT ([…], time 28 day)?
A: 19.5 s

Q: And the Bas ([…], time 28 day)?
A: 0.5%

Q: And the Eos ([…], time 28 day)?
A: 0.6%

Q: What about the Fbg ([…], time 28 day) of the same compound?
A: 303.6 mg/dL

Q: And the Hb ([…], time 28 day)?
A: 14.9 g/dL

Q: And the Ht ([…], time 28 day)?
A: 41.2%
